Results: patent publication US20060166287A1, “Method for Identifying compounds for suppressing metastasizing tumor cells” (priority 2002, published 2006)

Test system: c-Met
Assay: c-Met activation (ERK phosphorylation) by pro-HGF versus active HGF in HT29 and BSp73Asv4-7Δ15 cell lines, Western blot
Type: cell-based
Settings: HT29 and BSp73Asv4-7Δ15 cells with competent CD44 isoforms, FIG. 5
Source text: HGF/SF is secreted as single-stranded precursor which is processed by serum proteinases (Shimomura, 1995) or plasminogen activators of the urokinase type (Naldini, 1995) into an active a form and β subunits. Investigations into whether CD44 is involved in the activation of HGF was employed HGF precursor which was purchased and isolated from Drosophila Schneider cells (S2) for the activation of c-Met (FIG. 5).
(B) Western blot analyses to investigate the cleavage of the precursors pro-HGF (HGFp; enriched from Drosophila Schneider cells (S2)) into the active form HGFa by means of CD44 in the HT29 and BSp73Asv4-7Δ15 cell lines. The pro form is unable, despite the presence of competent CD44 isoforms, to mediate ERK phosphorylation by c-Met activation. In contrast thereto, processed, active HGF is capable, with the assistance of competent CD44 isoforms, of c-Met activation.
(C) Western blot analysis to investigate the cleavage of the precursor pro-HGF (HGFp; commercial) into the active form HGFa by means of CD44 in the HT29 and BSp73Asv4-7Δ15 cell lines. The pro form is unable, despite the presence of competent CD44-isoforms, to mediate ERK phosphorylation by c-Met activation. In contrast thereto, processed, active HGF is capable, with the assistance of competent CD44 isoforms, of c-Met activation.

pro-HGF: single-stranded HGF/SF precursor, purchased or isolated from Drosophila Schneider cells (S2)
Ability to activate c-Met / mediate ERK phosphorylation: unable | Ability to activate c-Met / mediate ERK phosphorylation (listed as pro form of HGF): unable to activate c-Met
